Source: patent US5925769A, “Acetylenic 1,5-diarylpyrazoles as antiinflammatory agents” (Ortho Pharmaceutical, Corp., priority 1998, dated 1999)

Columns and labels:
[1] = molecular target: T1, Sheep seminal vesicle (SSV) cyclooxygenase (Ovis aries, UniProt P05979); assay: Procedure I: inhibition of sheep seminal vesicle (SSV) cyclooxygenase; type: biochemical; conditions: SSV cyclooxygenase; read-out: Proc. I IC50
T1 construct: Sheep seminal vesicle (SSV) cyclooxygenase (95% pure); purchased Biomol (Plymouth Meeting, PA); host or cells: sheep seminal vesicle
T1 sequence (P05979 25-600): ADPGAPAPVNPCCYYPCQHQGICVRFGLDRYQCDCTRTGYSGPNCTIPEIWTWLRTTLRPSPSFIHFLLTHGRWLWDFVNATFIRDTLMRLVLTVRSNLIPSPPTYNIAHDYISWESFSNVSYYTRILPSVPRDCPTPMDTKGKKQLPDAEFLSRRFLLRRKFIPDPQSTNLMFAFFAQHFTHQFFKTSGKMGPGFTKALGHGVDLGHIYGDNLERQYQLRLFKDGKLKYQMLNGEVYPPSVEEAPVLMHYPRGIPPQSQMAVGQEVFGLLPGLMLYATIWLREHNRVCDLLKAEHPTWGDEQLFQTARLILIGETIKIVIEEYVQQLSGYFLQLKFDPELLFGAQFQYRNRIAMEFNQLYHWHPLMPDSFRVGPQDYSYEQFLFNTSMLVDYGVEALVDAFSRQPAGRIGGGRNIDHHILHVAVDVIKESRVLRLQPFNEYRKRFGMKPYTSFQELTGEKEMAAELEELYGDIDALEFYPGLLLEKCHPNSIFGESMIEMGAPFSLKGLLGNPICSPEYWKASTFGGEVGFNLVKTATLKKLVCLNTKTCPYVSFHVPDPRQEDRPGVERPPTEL
Summary of the method: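 Sheep seminal vesicle cyclooxygenase was preincubated with compound for 5 min at 37° C, then reacted with [1-14C]-arachidonic acid for 20 min. After formic acid stop and chloroform extraction, radioactive prostaglandin products were separated by TLC and scanned. Inhibition was derived from areas under the curve with and without compound.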

5-LO [2] = molecular target: T2, 5-LO (Rattus norvegicus, UniProt P12527); assay: Procedure II: 5-LO activity (5-HETE) in broken RBL-1 cells (homogenate supernatant); type: biochemical; conditions: RBL-1 broken cell supernatant; read-out: Proc. II 5-LO IC50
T2 construct: the supernatant was saved as the source of enzymes; endogenous in cells; host or cells: RBL-1 (rat basophilic leukemia) cells
T2 sequence (P12527 1-673): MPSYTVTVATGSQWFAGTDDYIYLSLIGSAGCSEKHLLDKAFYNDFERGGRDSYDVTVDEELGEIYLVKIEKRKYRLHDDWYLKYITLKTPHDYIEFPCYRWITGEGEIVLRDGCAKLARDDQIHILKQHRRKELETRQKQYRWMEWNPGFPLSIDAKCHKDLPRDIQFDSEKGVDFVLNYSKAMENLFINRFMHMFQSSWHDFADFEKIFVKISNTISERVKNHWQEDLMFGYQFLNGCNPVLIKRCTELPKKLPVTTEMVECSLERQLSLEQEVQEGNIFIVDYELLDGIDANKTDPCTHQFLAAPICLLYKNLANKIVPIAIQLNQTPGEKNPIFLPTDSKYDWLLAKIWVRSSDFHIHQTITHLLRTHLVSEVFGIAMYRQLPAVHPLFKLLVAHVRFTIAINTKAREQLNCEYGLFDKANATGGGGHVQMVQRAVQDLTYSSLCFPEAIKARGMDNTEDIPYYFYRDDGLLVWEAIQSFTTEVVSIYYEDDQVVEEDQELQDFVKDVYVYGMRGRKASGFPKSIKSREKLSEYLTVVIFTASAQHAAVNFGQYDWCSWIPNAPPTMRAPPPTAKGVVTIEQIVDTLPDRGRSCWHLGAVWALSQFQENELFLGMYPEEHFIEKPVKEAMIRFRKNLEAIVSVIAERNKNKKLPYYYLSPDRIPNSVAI
Summary of the method: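 Supernatant from rat RBL-1 homogenate (9,220×g) was pre-incubated 5 min at 37 °C with 2 mM CaCl2 and compound or 1% DMSO, then with 1-^14C-arachidonic acid for 20 min at 37 °C.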

5-LO [3] = molecular target: T2, 5-LO; assay: Procedure III: 5-LO (5-HETE) in intact RBL-1 cells; type: cell-based; conditions: calcium ionophore A 23187, read-out: Proc. III 5-LO IC50
Summary of the method: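 Intact RBL-1 cells at 1×10^5 cells/mL in HBSS were preincubated with vehicle or drug, pelleted and resuspended, then given 1-^14C-AA. 5-HETE (5-LO) and PgD2 (CO) were separated by TLC after acidification/extraction and quantified by radioimaging; IC50 from regression curve fit.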

CO = assay: Procedure IV: ex vivo eicosanoid synthesis assay using dogs, CO (TxB2); type: in vivo; conditions: dog, oral, 5 mg/kg
Protocol: (§1) Adult beagle or mongrel dogs (10-15 kg) of either sex were fasted overnight prior to the initiation of each experiment. The forelimb was clipped and swabbed with an alcohol prep (70% isopropanol). Blood was drawn by venipuncture into syringes containing lithium heparin (Starstead, Newton, N.C.) immediately prior to administration of compound or vehicle and then at various intervals following dosing. The test compound was administered orally as a suspension in 0.5% methocel. At various times after dosing, blood samples were drawn and placed on an electric rocker platform to assure complete and continuous mixing. White blood cell (wbc) counts were performed using a Sysmex hematology analyzer. This was done in an effort to normalize the number of leukocytes to be stimulated with calcium ionophore. A 1.0 mL aliquot of whole blood was challenged with 50 μL of a 2.6×10^-5 M solution of calcium ionophore A23187 (Calbiochem, La Jolla, Calif.) prepared in DMSO and diluted in HBSS. After a 15 minute incubation at 37° C., the reaction was stopped by placing the samples in an ice bath (4° C.) for 5 minutes and then centrifuging at 11,000×g for 5 minutes to separate the plasma fraction from blood cells. The plasma fraction was removed, diluted in an appropriate buffer, and analyzed for the presence of LTB4 and TxB2 by standard RIA techniques.

5-LO [4] = assay: Procedure IV: ex vivo eicosanoid synthesis assay using dogs, 5-LO (LTB4); type: in vivo; conditions: dog, oral, 5 mg/kg
Protocol: as §1

COc1ccc(-n2nc(C#CC(C)N(O)C(C)=O)cc2-c2ccc(Cl)cc2)cc1 (stereo not shown) [Cpd 35, N-acetyl-N-(1-(5-(4-chlorophenyl)-1-(4-methoxyphenyl)pyrazol-3-yl)-1-butyn-3-yl)hydroxylamine]
IC50 [1]: 2540 nM
IC50 (5-LO [2]): 110 nM
IC50 (5-LO [3]): 8.1 µM
% inh CO (CO; 2 h): 92%
% inh CO (CO; 4 h): 75%
% inh CO (CO; 6 h): 81%
% inh CO (CO; 8 h): 62%
% inh CO (CO; 24 h): 68%
% inh 5-LO (5-LO [4]; 2 h): 34%
% inh 5-LO (5-LO [4]; 4 h): 20%
% inh 5-LO (5-LO [4]; 6 h): 26%
% inh 5-LO (5-LO [4]; 8 h): 31%
% inh 5-LO (5-LO [4]; 24 h): 12%
